These results are taken from ChEMBL document CHEMBL1140559, “Synthesis and cytotoxic activity of various 5-[alkoxy-(4-nitro-phenyl)-methyl]-uracils in their racemic form” (Bioorg Med Chem Lett, 2007).

Holding throughout (format): functional, cell-based
Common to all, as to conditions: Homo sapiens

One assay relates to K562-Tax. Briefly: Cytotoxicity against p-glycoprotein positive K562-Tax cells.
Assay [1] deals with CCRF-CEM. Kind of assay: Cytotoxicity against lung resistance protein positive CEM cells.
Assay [2] concerns CCRF-CEM. Kind of assay: Inhibition of DNA synthesis in CEM cells at 5 times IC50.
For assay [3], the system named is CCRF-CEM. Kind of assay: Increase in RNA synthesis in CEM cells at IC50.
Assay [4] has as its system CCRF-CEM. Kind of assay: Inhibition of DNA synthesis in CEM cells at IC50.
Assay [5] has as its system CCRF-CEM. Kind of assay: Inhibition of RNA synthesis in CEM cells at IC50.
Assay [6] concerns CCRF-CEM. Kind of assay: Induction of apoptosis in CEM cells at IC50 after 24 hrs […].

Molecules are shown by their SMILES. Active and inactive are the calls of the source. No cut-off for these calls is given here.

For `CCCCCCCCCCCOC(c1ccc([N+](=O)[O-])cc1)c1c[nH]c(=O)[nH]c1=O` (stereo not given), the outcome in the assay on K562-Tax and with CCRF-CEM [1] was Active.

As to `CCCCCCCCCOC(c1ccc([N+](=O)[O-])cc1)c1c[nH]c(=O)[nH]c1=O` (stereo not given), the result in the assay with K562-Tax and with CCRF-CEM [1] was Active.

For `CCCCCCCCCCCCOC(c1ccc([N+](=O)[O-])cc1)c1c[nH]c(=O)[nH]c1=O` (stereo not given), the outcome in the assay with K562-Tax and with CCRF-CEM [1] was Active.

For the compound `CCCCCCCCCCOC(c1ccc([N+](=O)[O-])cc1)c1c[nH]c(=O)[nH]c1=O` (stereo not given), the result in the assay with K562-Tax and in the assay with CCRF-CEM [1] was Active.

On to `CCCCCCCCOC(c1ccc([N+](=O)[O-])cc1)c1c[nH]c(=O)[nH]c1=O` (stereo not given), for which the outcome in the assay with K562-Tax, in the assay on CCRF-CEM [1], in the assay with CCRF-CEM [2] and in the assay on CCRF-CEM [3] was Active.

Turning to `CCCCCCCOC(c1ccc([N+](=O)[O-])cc1)c1c[nH]c(=O)[nH]c1=O` (stereo not given), the result in the assay with K562-Tax, in the assay on CCRF-CEM [1], in the assay with CCRF-CEM [2] and with CCRF-CEM [3] was Active.

Regarding `CCCCCCOC(c1ccc([N+](=O)[O-])cc1)c1c[nH]c(=O)[nH]c1=O` (stereo not given), the result with CCRF-CEM [2], in the assay on CCRF-CEM [4], with CCRF-CEM [5] and with CCRF-CEM [6] was Active.
